For one data set, the target named is T1, histamine-H1 receptors (Cavia porcellus, UniProt P31389).
T1 construct: performed in guinea pig cerebellum membranes; from tissue; host or cells: guinea pig cerebellum membranes
Description: Histamine-H1 receptor binding assay ([3H]-mepyramine, guinea pig cerebellum membranes). To be noted: guinea pig cerebellum membranes, 0.7 nM [3H]-mepyramine; read-out: BINDING TO RECEPTOR H1 ( IC50 nM ). The procedure: (1) Histamine-H1 receptor binding assay
Briefly, the membrane suspensions (160 μg/ml) were incubated at 30° C. with 0.7 nM [^3H]- mepyramine and different concentrations of the test compounds in a final volume of 250 μl. Binding reactions were terminated by filtration after 30 min of incubation and the bound radioactivity was determined. The specific binding was measured in the presence of 10 μM of promethazine. The affinity of each test compound to the receptor was determined by using at least six different concentrations run in duplicate. IC50 values were obtained by non-linear regression by use of SAS on a DEC AXP computer.

Data set [1] concerns histamine-induced skin vascular permeability in rats. Description: Histamine-induced skin vascular permeability in rats. The data set is classed as in vivo. To be noted: Rattus norvegicus, po; 3 mg/Kg orally, 4 hours after administration, male Wistar rats; read-out: inhibition of the histamine-induced wheal. As for the experimental part: (2) Histamine-induced skin vascular permeability in rats
Male Wistar rats (180-210 g) were treated orally with the test compound or vehicle. One, 4, 8 and 24 hours later, the rats were lightly anaesthetized with ether. The cutaneous reaction was induced by two intradermal injections of 50 μl of histamine (100 μg/ml) onto the back, followed by a intravenous injection of 3 ml/kg of Evan's Blue (5 mg/ml), both dissolved in saline. Sixty min later, the rats were killed by cervical dislocation and the back skin dissected free. The diameter (in millimeters) of the wheal was measured in two directions and the area was calculated.

A value given as a limit tells only on which side of the number the result lay.

T1 sequence (P31389 whole entry): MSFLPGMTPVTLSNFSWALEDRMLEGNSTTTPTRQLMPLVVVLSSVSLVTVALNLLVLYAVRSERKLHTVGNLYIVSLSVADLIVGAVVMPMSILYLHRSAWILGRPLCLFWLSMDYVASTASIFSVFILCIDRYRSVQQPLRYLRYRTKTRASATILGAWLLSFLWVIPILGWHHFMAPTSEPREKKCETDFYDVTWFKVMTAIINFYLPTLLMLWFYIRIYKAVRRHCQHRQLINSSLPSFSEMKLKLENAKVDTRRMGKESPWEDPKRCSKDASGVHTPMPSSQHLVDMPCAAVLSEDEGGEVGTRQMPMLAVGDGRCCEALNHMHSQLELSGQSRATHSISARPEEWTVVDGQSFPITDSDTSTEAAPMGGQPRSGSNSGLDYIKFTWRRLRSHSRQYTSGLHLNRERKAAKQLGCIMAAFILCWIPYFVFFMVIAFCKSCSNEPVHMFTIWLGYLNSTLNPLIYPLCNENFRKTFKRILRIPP

Take `COCCn1cc(C2CCN(CCOc3ccccc3C(=O)O)CC2)c2ccccc21` [Example 140, 2-(2-{4-[1-(2-methoxy-ethyl)-1H-indol-3-yl]-piperidin-1-yl}-ethoxy)-benzoic acid]: the melting point is 139 to 140 °C. The IC50 on histamine-H1 receptors is 83 nM. In addition, the inhibition in vivo at 3 mg/kg in data set [1] is > 50%.

As to `C=CCn1cc(C2CCN(CCOc3ccccc3C(=O)O)CC2)c2ccccc21` [Example 141, 2-{2-[4-(1-allyl-1H-indol-3-yl)-piperidin-1-yl]-ethoxy}-benzoic acid], the melting point lay in the range of 123 to 125 °C. In addition, the IC50 on histamine-H1 receptors stood at 97 nM. In addition, the inhibition in vivo at 3 mg/kg in data set [1] is > 50%.

`CCOCCn1cc(C2CCN(CCOc3ccc(C)cc3C(=O)O)CC2)c2cc(OC)ccc21` [Example 142, 2-(2-{4-[1-(2-ethoxy-ethyl)-5-methoxy-1H-indol-3-yl]-piperidin-1-yl}-ethoxy)-5-methyl-benzoic acid] registered a melting point of 144 to 146 °C. Besides, at histamine-H1 receptors, the IC50 was 386 nM. For the same molecule, in data set [1], the inhibition in vivo at 3 mg/kg is > 50%.

The molecule `O=C(O)c1ccccc1OCCN1CCC(c2cn(CC3CC3)c3cc(F)ccc23)CC1` [Example 150, 2-{2-[4-(1-cyclopropylmethyl-6-fluoro-1H-indol-3-yl)-piperidin-1-yl]-ethoxy}-benzoic acid] had a melting point of 97 °C. Further, the IC50 at histamine-H1 receptors was 121 nM. For the same molecule, the inhibition in vivo at 3 mg/kg in data set [1] was > 50%.

Take `O=C(O)c1ccccc1OCCN1CCC(c2cn(CC3CC3)c3ccccc23)CC1` [Example 157, 2-{2-[4-(1-cyclopropylmethyl-1H-indol-3-yl)-piperidin-1-yl]-ethoxy}-benzoic acid]: the melting point is 145 to 147 °C. In addition, the IC50 on histamine-H1 receptors was 140 nM. In data set [1], the inhibition in vivo at 3 mg/kg is > 50%.

In turn, `O=C(O)c1cccc(CN2CCC(c3cn(CC4CC4)c4ccccc34)CC2)c1` [Example 158, 3-[4-(1-cyclopropylmethyl-1H-indol-3-yl)-piperidin-1-ylmethyl]-benzoic acid] returned a melting point of 207 °C. For the same molecule, the IC50 at histamine-H1 receptors turned out to be 104 nM. Also, the inhibition in vivo at 3 mg/kg in data set [1] is > 50%.

Source of the values: patent US6683096B2, “Indolylpiperidine derivatives as antihistaminic and antiallergic agents” (Almirall Prodesfarma, S.A., priority 1999, dated 2004).
